Assay results from patent US12569484B2, “Use of phosphodiesterase 5 inhibitor in preparation of medicament for resisting fibrotic diseases” (SHENZHEN HANHUI PHARMACEUTICAL TECHNOLOGY CO., LTD., priority 2019, dated 2026).

Test system: idiopathic pulmonary fibrosis model rats
Assay: Bleomycin-induced idiopathic pulmonary fibrosis model
Format: in vivo, male SD rats
Conditions: IPF rats; for degree of pulmonary fibrosis in the left lung (Ashcroft score): oral once a day 14 days
Method: 48 male SD rats were randomly divided into 6 groups according to their body weights, with 8 rats in each group: a sham operation group (Sham), a model group, a nintedanib-50 mg/kg group (BIBF-50 mg/kg), a tadalafil-5 mg/kg group, a tadalafil-20 mg/kg group, and a sildenafil-20 mg/kg group. All the operations involved in this experiment were implemented under the guiding principle of KCI animal experiment operation SOP. After the animals were purchased, they were fed adaptively for 3-7 days before modeling. After weighing, the animals were anesthetized with isoflurane inhalation. After it was confirmed that the animals were anesthetized, the neck was sterilized, the skin of the neck was cut open, a main trachea was exposed by blunt dissection of muscle, a small incision was made between tracheal rings, a PE-20 tube was inserted into a left main bronchus, bleomycin (dosage: 3 mg/kg, volume: 1.0 ml/kg) was directly injected, and the trachea and skin were sutured. After the operation was completed, the animals were put in an electric blanket at 37° C. to keep them warm until they fully woke up, and the animals were returned into feeding cages for normal feeding after it was confirmed that they could eat and drink freely. • (i) sham operation group and model group: the mice were given normal saline by intragastric administration according to their body weights at a dosage of 1 ml·100 g^-1·d^-1; • (ii) nintedanib-50 mg/kg group (BIBF-50 mg/kg): BIBF was formulated into a 10 mg/ml solution with 0.5% sodium carboxymethyl cellulose, and administrated intragastrically at a dosage of 50 mg·kg^-1·d^-1; • (iii) tadalafil-5 mg/kg group: tadalafil was diluted into a 1 mg/ml solution with 0.5% sodium carboxymethylcellulose, and administrated intragastrically at a dosage of 5 mg·kg^-1·d^-1; • (iv) tadalafil-20 mg/kg group: tadalafil was diluted into a 4 mg/ml solution with 0.5% sodium carboxymethylcellulose, and administrated intragastrically at a dosage of 20 mg·kg^-1·d^-1; • (v) sildenafil-20 mg/kg group: sildenafil was diluted into a 4 mg/ml solution with 0.5% sodium carboxymethylcellulose, and administrated intragastrically at a dosage of 20 mg·kg^-1·d^-1, and • the rats in each group were administrated intragastrically once a day for 14 days in total on the day of modeling. • (1) according to an interspecific dosage conversion method currently adopted by FDA, USA, the conversion coefficient of rats and human was 0.162. Therefore, according to the dosage and time of intragastric administration of tadalafil in the mice in this example, it was inferred that the oral dosage of human was 0.81-3.24 mg·kg^-1·d^-1, and the administration time was 14 days; and according to the dosage and time of intragastric administration of sildenafil in the mice in this example, it was inferred that the oral dosage of human was 3.24 mg·kg^-1·d^-1, and the administration time was 14 days. • (2) according to dosage conversion among different routes of administration in pharmacological experimental methodology, a dosage ratio of intramuscular injection and intraperitoneal injection to oral administration was about 0.3-0.4, so it was inferred that the injection dosage of tadalafil in human was 0.243-1.296 ml·kg^-1·d^-1, and the administration time was 14 days (medicament concentration: 1 mg/ml); and the injection dosage of sildenafil in human was 0.972-1.296 ml·kg^-1·d^-1, and the administration time was 14 days (medicament concentration: 1 mg/ml). 2.4 Experimental Indexes and Determining Methods 2.4.1 Weight and Volume of Left Lung of IPF Rats After 14 days of continuous administration, all animals were euthanized by intraperitoneal injection of a pentobarbital sodium anesthetic (100 mg/kg) to the animals in each group according to a KCI standard operating procedure for animal euthanasia. All animals were perfused with low-temperature PBS systematically, and then perfused systematically with formalin for fixation. […]

[1] = 14 days intragastric, BIBF 50 mg/kg, tadalafil 5 and 20 mg/kg, sildenafil 20 mg/kg
[2] = BIBF 50 mg/kg, tadalafil 5 and 20 mg/kg, sildenafil 20 mg/kg, vs model group, p<0.05

| SMILES | alveolar tissue structure in the pulmonary fibrosis lesion of the left lung (HE staining) [1] | alveolar tissue structure in the pulmonary fibrosis lesion of the left lung (Masson Trichrom staining) [1] | pulmonary fibrosis lesion and lesion range in the left lung (H&E and Masson Trichrom staining) (14 days intragastric, BIBF 50 mg/kg, tadalafil 5 and 20 mg/kg, sildenafil 20 mg/kg, vs model group) | scores of injury degrees of bronchioles and pulmonary arterioles in the center and margin of the pulmonary fibrosis lesion (14 days intragastric, BIBF 50 mg/kg, tadalafil 5 and 20 mg/kg, sildenafil 20 mg/kg, vs model group, p<0.05) | percentage of the pulmonary fibrosis degree (Ashcroft score of 3 as a boundary) (14 days intragastric, vs model group, p<0.05) | degree of pulmonary fibrosis in the left lung (Ashcroft score) [2] |
| --- | --- | --- | --- | --- | --- | --- |
| COC(=O)c1ccc2c(c1)NC(=O)/C2=C(\Nc1ccc(N(C)C(=O)CN2CCN(C)CC2)cc1)c1ccccc1 [BIBF, nintedanib] | some alveolar structures in the fibrosis lesion were still damaged | some alveolar structures disappeared in the fibrosis lesion | no significant difference | significantly decreased | significantly decreased | significantly improved |
| CCCc1nn(C)c2c(=O)[nH]c(-c3cc(S(=O)(=O)N4CCN(C)CC4)ccc3OCC)nc12 [sildenafil] | the alveolar structure in the fibrosis lesion was preserved | most of the alveolar structures in the fibrosis lesion were preserved |  |  |  | significantly inhibit |
